Test results reported in paper PMC11472313, “Development of Fragment-Based Inhibitors of the Bacterial Deacetylase LpxC with Low Nanomolar Activity” (Journal of Medicinal Chemistry, 2024).
Converted amounts (≈) assume the structure as drawn.

Columns and labels:
P. aeruginosa LpxC = target: T1, P. aeruginosa LpxC (Pseudomonas aeruginosa, UniProt P47205); assay: LC–MS/MS-based P. aeruginosa LpxC enzyme inhibition assay; type: biochemical; settings: from IC50 via Cheng–Prusoff
T1 construct: made in house; host or cells: E. coli BL21(DE3)
Source text: As Pseudomonas aeruginosa is one of the so-called ESKAPE pathogens,[56] being the leading cause of nosocomial infections throughout the world, and carbapenem-resistant P. aeruginosa strains were assigned the highest priority (priority 1: critical) within the “WHO priority pathogens list for R&D of new antibiotics” (WHO 2017),[57] new antibacterial agents combating these bacteria are urgently required. Thus, our newly developed LpxC inhibitors should be tested for inhibitory activity toward P. aeruginosa LpxC, which shares 57% sequence identity with E. coli LpxC.[28] Therefore, a liquid chromatography with tandem mass spectrometry (LC–MS/MS)-based P. aeruginosa LpxC assay was established. […] After incubation and subsequent termination of the enzymatic reaction, the samples were subjected to LC–MS/MS analysis. Following the chromatographic separation of substrate 1 and deacetylated product 2, the eluted compounds were ionized and subjected to fragmentation. Three multiple reaction monitoring (MRM) transitions were detected per compound [precursor ions: m/z (substrate 1) 832; m/z (deacetylated product 2) 790; product ions: m/z (product 1) 385, collision energy = −60 V; m/z (product 2) 159, collision energy = −80 V; m/z (product 3) 79, collision energy = −140 V]. The MRM transitions 832 → 79 of substrate 1 and 790 → 79 of product 2 were used as quantifiers; the other mass transitions were used as qualifiers.
The protocol of the LC–MS/MS-based P. aeruginosa LpxC assay was based on the E. coli LpxC C63A enzyme assay. Compared to the fluorescence-based enzyme assay, the substrate was diluted 1:10 and the inhibitors were diluted 1:4.
The wells in a black, nonbinding, 96-well fluorescence microplate (Greiner Bio One, Frickenhausen) were filled with 93 μL of 2.69 μM UDP-3-O-[(R)-3-hydroxymyristoyl]-N-acetylglucosamine in assay buffer [50 mM KH2PO4/K2HPO4 (pH = 7.5), 80 μM dithiothreitol, 0.02% Brij 35]. In order to assay the inhibitors at final concentrations from 5 nM up to 5 μM, 2 μL of a respective dilution of the compounds in DMSO were added. The addition of 5 μL of a solution of purified P. aeruginosa LpxC (5 μg mL^–1) in assay buffer led to final concentrations of 2.5 μM UDP-3-O-[(R)-3-hydroxymyristoyl]-N-acetylglucosamine, 7.5 nM P. aeruginosa LpxC, 2% DMSO, and from 5 nM up to 5 μM inhibitor. The microplate was incubated for 30 min at 37 °C in a plate shaker. Then, the biochemical reaction was stopped by adding 40 μL of 0.625 M hydrochloric acid. The reaction mixtures were further incubated for 10 min, sealed, and stored at −80 °C until analysis.
LC–MS/MS-Analysis. The reaction mixtures were separated by ultrahigh performance liquid-chromatography (1290 II Infinity UHPLC, Agilent Technologies), and the eluted compounds were analyzed by mass spectrometry using electrospray ionization in negative ion mode with a triple quadrupole linear ion trap mass spectrometer (QTRAP 5500, AB Sciex LLC).
To analyze the eluted compounds by mass spectrometry, a MRM method was applied. The specific parameters of this method are given in Table S2 (Supporting Information). After detection and selection of the precursor ions (1: m/z 832; 2: m/z 790), both analytes were fragmented, leading to three identical product ions [m/z (product 1) 385, collision energy = −60 V; m/z (product 2) 159, collision energy = −80 V; m/z (product 3) 79, collision energy = −140 V]. The mass transitions 832 → 79 (substrate 1) and 790 → 79 (product 2) were used as quantifiers; the other mass transitions were used as qualifiers. The ratio between substrate 1 and product 2 was quantified by comparing the peak areas of the quantifiers. The percentual inhibition caused by each inhibitor concentration was determined with respect to the amount of the product formed in the noninhibited reaction after 30 min.
Each assay was performed at least two times on separate days. […]

E. coli LpxC C63A = target: T2, E. coli LpxC C63A (Escherichia coli, UniProt P0A725, C63A); assay: fluorescence-based E. coli LpxC C63A enzyme inhibition assay; type: biochemical; settings: Ki E. coli LpxC C63A, from IC50 via Cheng–Prusoff
T2 construct: made in house; host or cells: E. coli BL21(DE3)
Procedure: In order to determine the inhibitory activities of the compounds of interest toward E. coli LpxC, a fluorescence-based enzyme assay was deployed, in which the formed deacetylated natural product UDP-3-O-[(R)-3-hydroxymyristoyl]glucosamine (2) is transformed into a fluorescent isoindole with o-phthaldialdehyde and 2-mercaptoethanol.[48],[49] […] The KM of E. coli LpxC C63A was determined experimentally using a mass spectrometry-based LpxC assay (Figure S8, Supporting Information, vide infra).
A fluorescence-based microplate assay for LpxC activity was performed as described by Clements et al.[48] The wells in a black, nonbinding, 96-well fluorescence microplate (Greiner Bio One, Frickenhausen) were filled with 93 μL of 26.9 μM UDP-3-O-[(R)-3-hydroxymyristoyl]-N-acetylglucosamine in assay buffer [40 mM sodium morpholinoethanesulfonic acid (pH 6.0), 80 μM dithiothreitol, 0.02% Brij 35]. In order to assay the inhibitors at final concentrations from 20 nM up to 20 μM, 2 μL of a respective dilution of the compounds in DMSO were added. The addition of 5 μL of a solution of purified LpxC (10 μg mL^–1) in assay buffer led to final concentrations of 25 μM UDP-3-O-[(R)-3-hydroxymyristoyl]-N-acetylglucosamine, 15 nM E. coli LpxC C63A, 2% DMSO, and from 20 nM up to 20 μM inhibitor. The microplate was incubated for 30 min at 37 °C in a plate shaker. Then, the biochemical reaction was stopped by adding 40 μL of 0.625 M sodium hydroxide. The reaction mixture was further incubated for 10 min and neutralized by adding 40 μL of 0.625 M acetic acid. The deacetylated product UDP-3-O-[(R)-3-hydroxymyristoyl]glucosamine was converted into a fluorescing isoindole by adding 120 μL of an o-phthaldialdehyde-2-mercaptoethanol solution, which was prepared by dissolving 10 mg of o-phthaldialdehyde in 1 mL of methanol, diluting the mixture with 24 mL of a sodium borate buffer (0.1 M), and finally adding 2.5 μL of 2-mercaptoethanol.[49] Fluorescence was measured with a TriStar^2 S LB 942 plate reader (Berthold, Bad Wildbad) at 340 nm excitation and 460 nm emission wavelengths. Each assay was performed at least three times on separate days. The IC50 values were calculated via Probit-log concentration graphs with the aid of the software Origin and were subsequently converted into Ki values using the Cheng–Prusoff equation.[75],[76]

E. coli BL21(DE3) [1] = assay: disc diffusion assay; type: cell-based; settings: 0.15 μmol per 6 mm disc
Procedure: (§1) Besides measuring the inhibitory activities toward E. coli LpxC C63A, the antibacterial activities of the synthesized hydroxamic acids were evaluated by determining their minimal inhibitory concentrations (MIC) in broth dilution tests as well as by performing disc diffusion assays (Table 1).
(§2) The disc diffusion assays against E. coli BL21(DE3) and the defective strain E. coli D22 were performed as follows: liquid cultures of the bacteria were grown overnight in lysogeny broth (LB)[73] at 37 °C and 200 rpm. 150 μL of an overnight cell suspension was spread evenly onto LB agar plates. 0.15 μmol of each compound (dissolved in 10 or 15 μL DMSO) were applied onto circular filter paper (Ø = 6 mm, Cytiva). Pure DMSO, serving as a negative control, and CHIR-090, serving as a positive control, were also spotted. The agar plates were incubated overnight at 37 °C, and the diameter of the zone of growth inhibition was measured for each compound. Each assay was performed at least three times on separate days.

E. coli D22 [2] = assay: disc diffusion assay; type: cell-based; settings: 0.15 μmol per 6 mm disc
Procedure: as §1, §2

E. coli BL21(DE3) [3] = assay: MIC, broth microdilution; type: cell-based; settings: Escherichia coli, 20 h, 37 °C, LB
Procedure: as §1
(§3) The MIC values of the compounds were determined by means of the microdilution method using 96-well plates.
(§4) The overnight suspension was diluted 1:1000 in fresh LB. 10 μL of a 2-fold dilution series of the compounds in DMSO and 90 μL of LB were dispensed to each well of a 96-well plate. Then, 100 μL of the inoculated medium was added, resulting in 5 × 10^5 cfu mL^–1, 5% DMSO, and a final concentration range of the test compounds between 64 and 0.016 μg mL^–1. The plates were incubated for 20 h at 37 °C. The MIC was defined as the lowest concentration of the compounds that prevented visible growth after incubation. Each assay was performed at least three times on separate days.

E. coli D22 [4] = assay: MIC, broth microdilution; type: cell-based; settings: Escherichia coli, 20 h, 37 °C, LB
Procedure: as §1, §3, §4

LpxC–9 complex = assay: NMR-ILOE (interligand NOESY) of fragment hits with LpxC and 9; settings: fragment hits binding the LpxC–9 complex by STD and WaterLogsy; 6 μM LpxC
Procedure: In order to find fragments specifically addressing the UDP-binding pocket, which can be linked to the LpxC inhibitors, a fragment screen was performed against LpxC bound to 9. First, 650 fragments in cocktails of five were tested for binding to the LpxC–9 complex using STD-NMR and WaterLogsy experiments. Then, fragment hits identified as potential binders were tested one by one against the LpxC–9 complex by STD-NMR and WaterLogsy experiments performed under identical experimental conditions. A total of 97 fragment hits were identified as binders, leading to a hit rate of 15%.
Then, NMR-ILOE experiments were performed with selected fragment hits in the presence of LpxC and the unsubstituted hydroxamic acid 9. This allowed the identification of fragments that bind in the enzyme’s UDP-binding pocket near the methylene group in the α-position of the inhibitor’s hydroxamate moiety. Weak interligand NOESY peaks were observed between inhibitor 9 and nine fragments. By contrast, no interligand NOESY peaks were observed between compound 9 and the other ten fragments. […] Unexpectedly, we also observed interligand NOESY between the fragment protons and protons of the morpholino moiety.
Standard 1D and STD NMR spectra were acquired at 20 °C with a Bruker 600 MHz NMR spectrometer equipped with a 5 mm cryoprobe. Parameters for the STD experiments (saturation frequency and saturation time) were identical for all samples. […] STD saturation time was 2 s. WaterLOGSY mixing time was 1.5 s. Two NOESY experiments were recorded with mixing times of 0.6 and 0.3 s. STD and WaterLOGSY spectra were recorded with the same NMR tubes containing 3 μM LpxC, compound 9 at 500 μM, and fragments at 500 μM. For NOESY experiments, NMR tubes contained 6 μM LpxC.
Temperature was set to 293 K for all NMR experiments.

T2 sequence (P0A725 whole entry C63A): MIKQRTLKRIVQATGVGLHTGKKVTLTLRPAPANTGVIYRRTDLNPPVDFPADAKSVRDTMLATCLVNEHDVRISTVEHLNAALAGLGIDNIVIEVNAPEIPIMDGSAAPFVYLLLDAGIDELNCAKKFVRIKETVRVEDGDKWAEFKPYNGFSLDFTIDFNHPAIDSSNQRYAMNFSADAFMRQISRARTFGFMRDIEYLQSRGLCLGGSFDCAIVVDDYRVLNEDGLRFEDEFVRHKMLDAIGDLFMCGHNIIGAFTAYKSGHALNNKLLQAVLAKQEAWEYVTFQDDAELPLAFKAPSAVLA
T1 sequence (P47205 whole entry): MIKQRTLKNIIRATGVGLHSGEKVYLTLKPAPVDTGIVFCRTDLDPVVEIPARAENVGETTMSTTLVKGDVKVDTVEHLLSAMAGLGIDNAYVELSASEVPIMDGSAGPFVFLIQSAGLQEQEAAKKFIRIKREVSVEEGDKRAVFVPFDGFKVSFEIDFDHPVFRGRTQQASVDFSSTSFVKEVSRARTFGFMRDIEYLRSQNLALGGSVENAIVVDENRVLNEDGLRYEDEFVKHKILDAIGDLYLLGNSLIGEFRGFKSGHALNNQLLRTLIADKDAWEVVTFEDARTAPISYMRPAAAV

| SMILES | Inter-Ligand NOESY peaks between the fragment and 9 (LpxC–9 complex) | further results |
| --- | --- | --- |
| O=C(NC[C@@H](OCc1ccc(C#Cc2ccc(CN3CCOCC3)cc2)cc1)C(=O)NO)c1c[nH]c2ccccc12 [(R)-13h] | – | Ki (P. aeruginosa LpxC): 631 ± 198 nM; Ki (E. coli LpxC C63A): 1580 ± 216 nM; Inhibition zone E. coli BL21(DE3) (E. coli BL21(DE3) [1]): ≤6 mm; Inhibition zone E. coli D22 (E. coli D22 [2]): 13.3 ± 1.0 mm; MIC (E. coli BL21(DE3) [3]): > 16 µg/mL; MIC (E. coli D22 [4]): 4 µg/mL (≈ 7.24 µM) |
| Oc1ccc(-n2ccnc2)cc1 [F2] | yes | – |
| c1ccc2[nH]ccc2c1 [F3] | yes | – |
| NC(=O)Cc1c[nH]c2ccc(Cl)cc12 [F4] | yes | – |
| c1ccc2c(c1)CCCN2 [F5] | yes | – |
| Nc1cnc2ccccc2c1 [F6] | yes | – |
| Nc1c2c(nc3ccccc13)CCCC2 [F7] | no | – |
| c1ccc(C2NCCn3cccc32)cc1 (stereo not drawn) [F8] | no | – |
| OCc1ccc(-n2cccn2)cc1 [F9] | no | – |
| c1ccc(Nc2ccccn2)nc1 [F10] | no | – |
| NCc1ccc(-c2ccccc2)cc1 [F11] | yes | – |
| c1ccc2[nH]ncc2c1 [F12] | no | – |
| Cn1c(O)cc2ccccc21 [F13] | no | – |
| c1ccc(-c2cc[nH]n2)cc1 [F14] | yes | – |
| O=c1ccn([C@@H]2O[C@H](CO)[C@@H](O)[C@H]2O)c(=O)[nH]1 [F15] | no | – |
| O=c1cc[nH]c(=O)[nH]1 [F16] | no | – |
| Nc1cccc(-c2cnco2)c1 [F17] | no | – |
| O=C1OCc2ccccc21 [F18] | no | – |
| c1ccc(Cn2ccnc2)cc1 [F19] | yes | – |
